In patent US20110054039A1, “USE OF ALKYL SULFATES OR SULFONATES AGAINST PROPIONIBACTERIUM ACNES” (priority 2008, published 2011):
Values after ≈ are worked out from the molar mass of the structure shown. Counter-ions that a name gives are not always drawn. Like-named read-outs stand apart in the source and are kept apart here.

Legend:
Type in all cases: cell-based
[1] = tested on: Propionibacterium acnes NCTC 737; experiment: Disc Diffusion Assay (DDA); details: P. acnes NCTC 737, 200 μg of test compound per disc; for zone of inhibition at 200 µg/disc: Cutibacterium acnes, NCTC737, read-out: DDA (diameter of zone of inhibition)
Experimental: (§1) The test micro-organism represented the cutaneous propionibacteria. […] The propionibacteria are clinically significant due to their involvement in acne. This is a very common, complex and multi-factorial skin disease in which P. acnes and other Propionibacterium spp. […] They are also opportunistic pathogens in compromised hosts.
(§2) The propionibacteria were cultured and maintained on Wilkins-Chalgren Anaerobe Medium (agar and broth) at pH 6.0; all cultures were incubated anaerobically at 37° C. for 72 hours.
This is an internationally recognised standard method for qualitatively assessing the antimicrobial activity of a compound.
(§3) A sterile paper disc was impregnated with a sample of the test compound in a suitable solvent and 30 minutes allowed for the solvents to evaporate (where possible). The disc was then placed on an agar plate onto which the test micro-organism had been inoculated. The plate was then incubated under the conditions described above, following which it was examined visually for signs of microbial growth. […] The diameter of this zone of ‘inhibition’ was measured using a ProtoCOL™ automated zone sizer (Synbiosis, Cambridge, UK).
(§4) MIC, MBC and DDA assays, as described above, were carried out using as the test compound sodium n-tetradecyl sulphate (STS, ex Sigma Aldrich, UK), dissolved in distilled water. All the experiments were conducted in triplicate. For the DDA experiments, 200 μg of the test compound was loaded onto each disc.
(§5) The MIC/MBC experiments were conducted in triplicate, with the exception of those for SDS and ADS which were conducted in duplicate. The DDAs were performed either in triplicate, in which case standard deviations are quoted in parentheses, or as a single replicate. For the DDA experiments, 200 μg of the test compound was loaded onto each disc.

[2] = tested on: Propionibacterium acnes NCTC 737; experiment: Minimum Inhibitory Concentration (MIC) assay, broth microdilution; details: P. acnes NCTC 737, Wilkins-Chalgren broth pH 6.0, anaerobic, 37° C., 72 hours
Experimental: as §1, §2
This is a standard international method for quantitatively assessing the antimicrobial activity of a compound in a liquid medium. […] The culture media were as described above.
The wells were inoculated with a liquid suspension of freshly grown micro-organism and incubated under the conditions described above. After incubation, the microtitre plate was examined visually (with the aid of a light box) for cloudiness in each well, which would indicate microbial growth. The MIC value was recorded as the lowest concentration of test compound required to inhibit microbial growth, ie the lowest concentration for which the liquid in the well remained clear.
The assays included both negative (culture medium with no micro-organisms) and positive (culture medium plus diluting solvent plus micro-organism) controls.
as §4, §5

[3] = tested on: Propionibacterium acnes NCTC 737; experiment: Supplemented Disc Diffusion Assay (agar with salt or lipid); details: P. acnes NCTC 737, 200 μg per disc; for zone of inhibition at 200 µg/disc: Cutibacterium acnes, NCTC737, 72 h
Experimental: as §1, §2, §3
Performance under these conditions can provide a more reliable indication of activity on topical application.
as §4, §5

[4] = tested on: Propionibacterium acnes NCTC 737; experiment: Minimum Biocidal (Bactericidal) Concentration (MBC) assay; details: P. acnes NCTC 737; for MBC: sub-culture on antibiotic-free agar after MIC assay
Experimental: as §1, §2
This assay, normally carried out after an MIC assay, determines the minimum concentration of a compound that is lethal to the micro-organism being tested.
These samples were then individually sub-cultured on antibiotic-free agar medium, under the incubation conditions described above. Following incubation they were examined visually for microbial growth.
as §4, §5

[5] = Cutibacterium acnes, NCTC737, read-out: MIC
[6] = agar supplemented with sodium chloride (100 mM), read-out: DDA + salt
[7] = agar supplemented with triolein at 1% v/v, read-out: DDA + lipid
[8] = Cutibacterium acnes, NCTC737, read-out: MBC

| SMILES | zone of inhibition at 200 µg/disc [1] [mm] | MIC [2, 5] [µg/mL] | zone of inhibition at 200 µg/disc [3, 6] [mm] | zone of inhibition at 200 µg/disc [3, 7] [mm] | MBC [4, 8] [µg/mL] | MIC/MBC ratio [4] | MIC [2] [µg/mL] | MBC [4] [µg/mL] | DDA (diameter of zone of inhibition) [1] [mm] | DDA + salt ([3]; agar supplemented with sodium chloride (100 mM)) [mm] | DDA + lipid ([3]; agar supplemented with triolein at 1% v/v) [mm] |
| --- | --- | --- | --- | --- | --- | --- | --- | --- | --- | --- | --- |
| CCCCC(CC)CCC(CC(C)C)OS(=O)(=O)O (stereo not shown) [7-ethyl-2-methyl-4-hendecanol sulphate sodium salt] | 28.5 | 31.2 | 30.8 | 28.6 | 62.5 | 0.5 | – | – | – | – | – |
| CCCCCCCCCCCCOS(=O)(=O)O.N [Ammonium dodecyl sulphate (ADS), ammonium dodecyl sulphate] | 22.2 | 31.2 | 24.1 | 20.3 | 125 | 0.25 | – | – | – | – | – |
| CCCCCCCCCCCC(=O)O [Laurie acid, reference compound] | – | – | – | – | – | – | 15.6 (≈ 0.0779 mM) | 31.25 (≈ 0.156 mM) | – | – | – |
| CCCCCCCCCCCCOS(=O)(=O)[O-].[Li+] [Lithium dodecyl sulphate, lithium dodecyl sulphate] | 30 | 15.6 | 30.5 | 30.2 | 15.6 | 1 | – | – | – | – | – |
| CCCCS(=O)(=O)[O-].[Na+] [Sodium 1-butane sulphonate, sodium 1-butane sulphonate] | 0 | > 250 | 0 | 0 | > 250 | – | – | – | – | – | – |
| CCCCCCCCCCS(=O)(=O)[O-].[Na+] [Sodium 1-decane sulphonate, sodium 1-decane sulphonate] | 0 | > 250 | 0 | 0 | > 250 | – | – | – | – | – | – |
| CCCCCCCCCCCCS(=O)(=O)[O-].[Na+] [Sodium 1-dodecanesulphonate, sodium 1-dodecanesulphonate] | 18.1 | 125 | 23 | 18.4 | 250 | 0.5 | – | – | – | – | – |
| CCCCCCCS(=O)(=O)[O-].[Na+] [Sodium 1-heptane sulphonate, sodium 1-heptane sulphonate] | 0 | > 250 | 0 | 10.6 | > 250 | – | – | – | – | – | – |
| CCCCCCCCCCCCCCCCS(=O)(=O)[O-].[Na+] [Sodium 1-hexadecane sulphonate, sodium 1-hexadecane sulphonate] | 0 | 1.95 | 0 | 0 | 3.9 | 0.5 | – | – | – | – | – |
| CCCCCCCCCS(=O)(=O)[O-].[Na+] [Sodium 1-nonanesulphonate, sodium 1-nonanesulphonate] | 0 | > 250 | 0 | 0 | > 250 | – | – | – | – | – | – |
| CCCCCCCCCCCCCCCCCCS(=O)(=O)O.[Na] [Sodium 1-octadecane sulphonic acid, sodium 1-octadecane sulphonic acid] | 0 | 125 | 0 | 0 | > 250 | <0.5 | – | – | – | – | – |
| CCCCCCCCS(=O)(=O)O.[Na] [Sodium 1-octane sulphonic acid, sodium 1-octane sulphonic acid] | 0 | > 250 | 0 | 0 | > 250 | – | – | – | – | – | – |
| CCCCCCCCCCCCCCCS(=O)(=O)O.[Na] [Sodium 1-pentadecane sulphonic acid, sodium 1-pentadecane sulphonic acid] | 11.8 | 0.98 | 12.1 | 0 | 3.9 | 0.25 | – | – | – | – | – |
| CCCS(=O)(=O)[O-].O.[Na+] [Sodium 1-propanesulphate monohydrate, sodium 1-propanesulphate monohydrate] | – | – | – | – | – | – | >250 | >250 | 0.00 | 0.00 | 0.00 |
| CCCCCCCCCCCCCCS(=O)(=O)O.[Na] [Sodium 1-tetradecane sulphonic acid, sodium 1-tetradecane sulphonic acid] | 11.2 | 3.9 | 12.4 | 9.61 | 15.6 | 0.25 | – | – | – | – | – |
| CCCCCCCCCCCCCS(=O)(=O)O.[Na] [Sodium 1-tridecane sulphonic acid, sodium 1-tridecane sulphonic acid] | 28.6 | 15.6 | 29.3 | 27.4 | 31.2 | 0.5 | – | – | – | – | – |
| CCCCCCCCCCOS(=O)(=O)[O-].[Na+] [Sodium decyl sulphate, sodium decyl sulphate] | 0 | 250 | 0 | 0 | > 250 | <1 | – | – | – | – | – |
| CCCCCCCCCCCCOS(=O)(=O)[O-].[Na+] [Sodium dodecyl sulphate (SDS), sodium dodecyl sulphate] | 30.7 | 31.2 | 28.2 | 28.2 | 62.5 | 0.5 | – | – | – | – | – |
| CCCCCCCCCCCCCCCCOS(=O)(=O)[O-].[Na+] [Sodium hexadecyl sulphate, sodium hexadecyl sulphate] | 36.3 | 0.98 | 32.4 | 39.8 | 1.95 | 0.5 | – | – | – | – | – |
| CCCCCCOS(=O)(=O)[O-].[Na+] [Sodium n-hexyl sulphate, sodium n-hexyl sulphate] | 0 | > 250 | 0 | 0 | > 250 | – | – | – | – | – | – |
| CCCCCCCCCOS(=O)(=O)[O-].[Na+] [Sodium n-nonyl sulphate, sodium n-nonyl sulphate] | 0 | 250 | 0 | 0 | 250 | 1 | – | – | – | – | – |
| CCCCCOS(=O)(=O)[O-].[Na+] [Sodium n-pentyl sulphate, sodium n-pentyl sulphate] | 0 | > 250 | 0 | 0 | > 250 | – | – | – | – | – | – |
| CCCCCCCCCCCCCC(=O)O [myristic acid, reference compound] | – | > 1000 | – | – | > 1000 | – | – | – | – | – | – |
| CCCCCCCCCCCCCCCC(=O)O [palmitic acid, reference compound] | – | > 1000 | – | – | > 1000 | – | – | – | – | – | – |
